These results are taken from ChEMBL document CHEMBL1201862, “PubChem BioAssay data set” (2004).

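A five-concentration, 48-hour dose response in 96-well plates underlies each endpoint, interpolated linearly between surrounding concentrations. GI50: concentration for 50% inhibition of growth.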 The source made the active and inactive calls. Rule as the data show it: active = GI50 up to about 1.1 µM and inactive = higher.

Some test systems named below: HCC 2998; SF-295; IGROV-1; HOP-92; UACC-257; SK-MEL-28; SK-OV-3; K562; HL-60; UACC-62; SF-539; KM-20L2; RXF 393; HT-29; SN12C; ACHN; OVCAR-4.
Holding throughout (experiment): inhibition of tumour cell growth, NCI panel, 48 h

Consider `C/C(CC(=O)Nc1cc(Cl)c(Cl)cc1Cl)=N\NC(N)=O`, for which the GI50 with HCC 2998 was > 100 µM (inactive); in the test with SF-295, > 100 µM (inactive); in the test on IGROV-1 it was > 100 µM (inactive); in the test with HOP-92 it was 39.1 µM (inactive); with UACC-257, > 100 µM (inactive); with SK-MEL-28, > 100 µM (inactive). Besides, the GI50 in the test on SK-OV-3, in the test with K562, in the test with HL-60, in the test with UACC-62, in the test with SF-539 and with KM-20L2 was > 100 µM (inactive) in each case. Also, the figures for the GI50 in the test on RXF 393 and with HT-29 were 61.7 µM (inactive) and > 100 µM (inactive), respectively.
As to `CN(C)CCN(C)CC1COC(C)(C)O1` (stereo not given), the GI50 in the test on HCC 2998, in the test on SN12C, in the test on SF-295, in the test on IGROV-1, with HOP-92 and with UACC-257 was > 100 µM (inactive) in each case. Further, the GI50 in the test on SK-MEL-28, in the test on SK-OV-3, with ACHN, with K562, in the test with HL-60 and in the test with OVCAR-4 was > 100 µM (inactive) in each case. The GI50 in the test with UACC-62, in the test with SF-539, in the test with KM-20L2, in the test with RXF 393 and with HT-29 was > 100 µM (inactive) throughout.
Regarding `CC(=O)NC1C(OCc2ccccc2)OC(CO)C(O)C1OC(C)C(=O)N[C@@H](C)C(=O)N[C@H](CCC(=O)OCCNc1c2ccccc2nc2cccc([N+](=O)[O-])c12)C(N)=O` (stereo not given in full), the GI50 was 0.000681 µM (active) in the test on HCC 2998; 0.00531 µM (active) in the test with SN12C; 0.00427 µM (active) with SF-295; 0.0215 µM (active) in the test with IGROV-1; 0.00178 µM (active) in the test with HOP-92; 0.00339 µM (active) in the test with UACC-257. Moreover, the GI50 is 0.00441 µM (active) in the test with SK-MEL-28; 0.00711 µM (active) with SK-OV-3; 0.00145 µM (active) with ACHN; 0.00094 µM (active) in the test on K562; 0.00647 µM (active) with HL-60; 0.0038 µM (active) in the test with OVCAR-4. Further, the GI50 is 0.000451 µM (active) in the test on UACC-62; 0.00313 µM (active) with SF-539; 0.000175 µM (active) with KM-20L2; 0.0012 µM (active) with RXF 393; 0.000186 µM (active) in the test with HT-29.
Regarding `O=C(c1ccccc1)c1nnn(Cc2cccc(Cl)c2)c1C(=O)c1ccccc1`, the GI50 in the test on HCC 2998 is 44 µM (inactive); in the test on SF-295, > 100 µM (inactive); with IGROV-1, > 100 µM (inactive); in the test on HOP-92, > 100 µM (inactive); in the test with UACC-257, > 100 µM (inactive); in the test with SK-MEL-28 it was > 100 µM (inactive). Further, the GI50 in the test on SK-OV-3 is 34.8 µM (inactive); in the test with ACHN it was > 100 µM (inactive); in the test on K562, > 100 µM (inactive); in the test with HL-60 it was > 100 µM (inactive); with OVCAR-4, > 100 µM (inactive); in the test with UACC-62, > 100 µM (inactive). The GI50 with KM-20L2, in the test with RXF 393 and with HT-29 was > 100 µM (inactive) each time.
Regarding `C/C(=N\NC(=O)C(N)=O)c1c(O)cc(C)oc1=O`, the GI50 with HCC 2998, in the test with SN12C, in the test with SF-295, with IGROV-1, with HOP-92 and in the test with UACC-257 was > 100 µM (inactive) in each case. The GI50 in the test with SK-MEL-28, with SK-OV-3, in the test on ACHN, in the test with K562, with HL-60 and in the test with OVCAR-4 was > 100 µM (inactive) each time. Besides, the GI50 with UACC-62, in the test on SF-539, in the test with KM-20L2 and in the test with HT-29 was > 100 µM (inactive) each time.
As for `O=C(Nc1ccn(CCOC(=O)c2ccccc2)c(=O)n1)c1ccccc1`, the GI50 with SN12C, with SF-295, in the test with IGROV-1, in the test with HOP-92, in the test with UACC-257 and with SK-MEL-28 was > 100 µM (inactive) throughout. In addition, the GI50 with SK-OV-3, in the test on ACHN, in the test on K562, in the test on HL-60, in the test with OVCAR-4 and with UACC-62 was > 100 µM (inactive) throughout. In addition, the GI50 with SF-539, in the test with KM-20L2, in the test on RXF 393 and with HT-29 was > 100 µM (inactive) each time.
For `CCC1=C(C[C@H]2NCCc3cc(OC)c(OC)cc32)C[C@H]2c3cc(OC)c(OC)cc3CCN2C1`, the GI50 was 0.0293 µM (active) in the test on HCC 2998; 0.0326 µM (active) in the test with SN12C; 0.0331 µM (active) in the test with SF-295; 0.0445 µM (active) in the test with IGROV-1; 0.0204 µM (active) in the test with HOP-92; 0.0473 µM (active) in the test on UACC-257. Also, the GI50 in the test with SK-MEL-28 is 0.0365 µM (active); in the test on SK-OV-3 it was 0.0637 µM (active); with ACHN, 0.0388 µM (active); in the test with HL-60 it was 0.0247 µM (active); in the test with OVCAR-4, 0.0143 µM (active); in the test with UACC-62, 0.0336 µM (active). Moreover, the GI50 was 0.0326 µM (active) in the test with SF-539, 0.0288 µM (active) with KM-20L2, 0.0254 µM (active) in the test with RXF 393 and 0.0272 µM (active) in the test on HT-29.
As to `O=c1[nH]c(-c2ccc([N+](=O)[O-])cc2)nc2ccc(Cl)cc12`, the GI50 in the test with HCC 2998 was > 100 µM (inactive); in the test on SN12C, > 100 µM (inactive); with SF-295, > 100 µM (inactive); in the test on IGROV-1, 55.3 µM (inactive); with HOP-92, 26.8 µM (inactive); in the test with UACC-257, > 100 µM (inactive). Besides, the GI50 is > 100 µM (inactive) in the test with SK-MEL-28; 77.3 µM (inactive) in the test with SK-OV-3; > 100 µM (inactive) in the test on ACHN; 17.9 µM (inactive) in the test on K562; > 100 µM (inactive) with UACC-62; > 100 µM (inactive) in the test on SF-539. Besides, the GI50 is > 100 µM (inactive) with KM-20L2, 78.3 µM (inactive) in the test on RXF 393 and > 100 µM (inactive) in the test on HT-29.
On to `O=NN1C(c2ccccc2)C2CCCC(C2=O)C1c1ccccc1` (stereo not given), for which the GI50 with HCC 2998 was 16.6 µM (inactive); in the test with SN12C it was 26.2 µM (inactive); in the test with SF-295 it was 30.8 µM (inactive); with IGROV-1, 40 µM (inactive); with HOP-92, 22 µM (inactive); in the test on UACC-257, 24 µM (inactive). In addition, the GI50 was 21.7 µM (inactive) with SK-MEL-28; 24.5 µM (inactive) with SK-OV-3; 21.1 µM (inactive) in the test with K562; 19.3 µM (inactive) in the test with HL-60; 23.9 µM (inactive) with OVCAR-4; 20.4 µM (inactive) in the test with UACC-62. The GI50 was 44.6 µM (inactive) in the test with SF-539, 16 µM (inactive) in the test on KM-20L2, 18.9 µM (inactive) in the test on RXF 393 and 18.1 µM (inactive) in the test on HT-29.
In the case of `CC12CCCC(C#N)(C1)OC2=O` (stereo not given), the GI50 in the test with SN12C, with SF-295, with IGROV-1, with HOP-92, with UACC-257 and in the test on SK-MEL-28 was > 100 µM (inactive) each time. In addition, the GI50 in the test with SK-OV-3, in the test on ACHN, with K562, in the test with HL-60, in the test on OVCAR-4 and in the test with UACC-62 was > 100 µM (inactive) in each case. For the same compound, the GI50 in the test on SF-539, in the test with KM-20L2, with RXF 393 and with HT-29 was > 100 µM (inactive) throughout.
Turning to `Nc1nc2[nH]c(=O)cnc2c(=O)[nH]1` [ISOXANTHOPTERIN], the GI50 in the test on HCC 2998, in the test with SN12C, with SF-295, in the test with IGROV-1, in the test on HOP-92 and with UACC-257 was > 125 µM (inactive) throughout. Besides, the GI50 with SK-MEL-28, with SK-OV-3, with K562, with HL-60, in the test on OVCAR-4 and in the test on UACC-62 was > 125 µM (inactive) throughout. The GI50 in the test on SF-539 was > 125 µM (inactive); with KM-20L2 it was > 72.4 µM (inactive); in the test on RXF 393, > 125 µM (inactive); with HT-29 it was > 125 µM (inactive).
For `COC(=O)C1=C(\O)C[C@@]2(C)CC[C@@H](C(=O)OC)C2C/C=C\1C(=O)OC` (stereo not given in full), the GI50 in the test with HCC 2998 is > 100 µM (inactive); in the test with SN12C it was 24.1 µM (inactive); in the test on SF-295 it was > 100 µM (inactive); in the test on IGROV-1 it was > 100 µM (inactive); with HOP-92, > 100 µM (inactive); with UACC-257, 72.8 µM (inactive). Also, the GI50 was 47 µM (inactive) in the test with SK-MEL-28; > 100 µM (inactive) in the test on SK-OV-3; > 100 µM (inactive) in the test on ACHN; 49.5 µM (inactive) in the test on HL-60; > 100 µM (inactive) with OVCAR-4; > 100 µM (inactive) in the test on UACC-62. Moreover, the GI50 in the test with SF-539 is 19.7 µM (inactive); in the test on KM-20L2 it was > 100 µM (inactive); with RXF 393, 40.6 µM (inactive); in the test on HT-29 it was > 100 µM (inactive).
